Measurements as given in US4965280A, “Antifungal carbinols” (E. I. Du Pont de Nemours and Company, priority 1989, dated 1990).

Key:
Experiment in all cases: Test E
BLACK NIGHTSHAD = assay type: in vivo, Solanum nigrum
KOCHIA = assay type: in vivo, Kochia scoparia
SNTLS CHAMOMILE = assay type: in vivo, Matricaria indora
PERSN SPEEDWELL = assay type: in vivo, Veronica persica
REDROOT PIGWEED = assay type: in vivo, Amaranthus retroflexus
CTCHWD BEDSTRAW = assay type: in vivo, Galium aparine
WILD OATS = assay type: in vivo, Avena fatua
ITALN. RYEGRASS = assay type: in vivo, Lolium multiflorum
MUSTARD SPP. = assay type: in vivo, Brassica spp.
PARK WHEAT = assay type: in vivo, Triticum aestivum cv. Park

## C=C(c1ccc(Cl)cc1Cl)C(O)(Cn1cncn1)c1ccccc1F (stereo not drawn) [Example 107]
BLACK NIGHTSHAD; PREEMERGENCE 0250 GM/HA
  plant response: 80%
KOCHIA; PREEMERGENCE 0250 GM/HA
  plant response: 0%
SNTLS CHAMOMILE; PREEMERGENCE 0250 GM/HA
  plant response: 70%
PERSN SPEEDWELL; PREEMERGENCE 0250 GM/HA
  plant response: 100%
REDROOT PIGWEED; PREEMERGENCE 0250 GM/HA
  plant response: 100%
CTCHWD BEDSTRAW; PREEMERGENCE 0250 GM/HA
  plant response: 0%
WILD OATS; PREEMERGENCE 0250 GM/HA
  plant response: 0%
ITALN. RYEGRASS; PREEMERGENCE 0250 GM/HA
  plant response: 0%
MUSTARD SPP.; PREEMERGENCE 0250 GM/HA
  plant response: 20%
PARK WHEAT; PREEMERGENCE 0250 GM/HA
  plant response: 30%

## C=C(c1ccc(F)cc1)C(O)(Cn1cncn1)c1ccccc1F (stereo not drawn) [Example 644]
BLACK NIGHTSHAD; POSTEMERGENCE 0064 GM/HA
  plant response: 0%
BLACK NIGHTSHAD; POSTEMERGENCE 0125 GM/HA
  plant response: 0%
BLACK NIGHTSHAD; POSTEMERGENCE 0250 GM/HA
  plant response: 10%
BLACK NIGHTSHAD; POSTEMERGENCE 0500 GM/HA
  plant response: 20%
BLACK NIGHTSHAD; PREEMERGENCE 0500 GM/HA
  plant response: 0%
KOCHIA; POSTEMERGENCE 0064 GM/HA
  plant response: 0%
KOCHIA; POSTEMERGENCE 0125 GM/HA
  plant response: 0%
KOCHIA; POSTEMERGENCE 0250 GM/HA
  plant response: 50%
KOCHIA; POSTEMERGENCE 0500 GM/HA
  plant response: 70%
KOCHIA; PREEMERGENCE 0500 GM/HA
  plant response: 100%
SNTLS CHAMOMILE; POSTEMERGENCE 0064 GM/HA
  plant response: 20%
SNTLS CHAMOMILE; POSTEMERGENCE 0125 GM/HA
  plant response: 50%
SNTLS CHAMOMILE; POSTEMERGENCE 0250 GM/HA
  plant response: 50%
SNTLS CHAMOMILE; POSTEMERGENCE 0500 GM/HA
  plant response: 90%
SNTLS CHAMOMILE; PREEMERGENCE 0500 GM/HA
  plant response: 100%
PERSN SPEEDWELL; POSTEMERGENCE 0064 GM/HA
  plant response: 0%
PERSN SPEEDWELL; POSTEMERGENCE 0125 GM/HA
  plant response: 20%
PERSN SPEEDWELL; POSTEMERGENCE 0250 GM/HA
  plant response: 40%
PERSN SPEEDWELL; POSTEMERGENCE 0500 GM/HA
  plant response: 80%
PERSN SPEEDWELL; PREEMERGENCE 0500 GM/HA
  plant response: 50%
REDROOT PIGWEED; POSTEMERGENCE 0064 GM/HA
  plant response: 50%
REDROOT PIGWEED; POSTEMERGENCE 0125 GM/HA
  plant response: 50%
REDROOT PIGWEED; POSTEMERGENCE 0250 GM/HA
  plant response: 50%
REDROOT PIGWEED; POSTEMERGENCE 0500 GM/HA
  plant response: 60%
REDROOT PIGWEED; PREEMERGENCE 0500 GM/HA
  plant response: 80%
CTCHWD BEDSTRAW; POSTEMERGENCE 0064 GM/HA
  plant response: 0%
CTCHWD BEDSTRAW; POSTEMERGENCE 0125 GM/HA
  plant response: 30%
CTCHWD BEDSTRAW; POSTEMERGENCE 0250 GM/HA
  plant response: 30%
CTCHWD BEDSTRAW; POSTEMERGENCE 0500 GM/HA
  plant response: 30%
CTCHWD BEDSTRAW; PREEMERGENCE 0500 GM/HA
  plant response: 0%
WILD OATS; POSTEMERGENCE 0064 GM/HA
  plant response: 0%
WILD OATS; POSTEMERGENCE 0125 GM/HA
  plant response: 0%
WILD OATS; POSTEMERGENCE 0250 GM/HA
  plant response: 20%
WILD OATS; POSTEMERGENCE 0500 GM/HA
  plant response: 20%
WILD OATS; PREEMERGENCE 0500 GM/HA
  plant response: 20%
ITALN. RYEGRASS; POSTEMERGENCE 0064 GM/HA
  plant response: 0%
ITALN. RYEGRASS; POSTEMERGENCE 0125 GM/HA
  plant response: 20%
ITALN. RYEGRASS; POSTEMERGENCE 0250 GM/HA
  plant response: 50%
ITALN. RYEGRASS; POSTEMERGENCE 0500 GM/HA
  plant response: 40%
ITALN. RYEGRASS; PREEMERGENCE 0500 GM/HA
  plant response: 0%
MUSTARD SPP.; POSTEMERGENCE 0064 GM/HA
  plant response: 20%
MUSTARD SPP.; POSTEMERGENCE 0125 GM/HA
  plant response: 20%
MUSTARD SPP.; POSTEMERGENCE 0250 GM/HA
  plant response: 50%
MUSTARD SPP.; POSTEMERGENCE 0500 GM/HA
  plant response: 50%
MUSTARD SPP.; PREEMERGENCE 0500 GM/HA
  plant response: 0%
PARK WHEAT; POSTEMERGENCE 0064 GM/HA
  plant response: 0%
PARK WHEAT; POSTEMERGENCE 0125 GM/HA
  plant response: 20%
PARK WHEAT; POSTEMERGENCE 0250 GM/HA
  plant response: 30%
PARK WHEAT; POSTEMERGENCE 0500 GM/HA
  plant response: 40%
PARK WHEAT; PREEMERGENCE 0500 GM/HA
  plant response: 30%
